Experimental data as given in US20210290606A1, “METHOD TO PREVENT AND TREAT OSTEOARTHRITIS BY CALCIUM CHANNEL BLOCKERS, ANGIOTENSIN CONVERTING ENZYME INHIBITORS, AND ANGIOTENSIN RECEPTOR BLOCKERS” (priority 2018, published 2021).
Like-named read-outs stand apart in the source and are kept apart here.

Columns and labels:
[1] = system: osteoarthritis syndrome in both knees; assay: Composition applied to the skin in the region of one knee, other knee left untreated; format: in vivo, human; conditions: patient, topical application to skin in the region of one knee
Excerpt: A patient is diagnosed with osteoarthritis syndrome in both knees.
A patient is diagnosed with osteoarthritis syndrome in both knees. A composition comprising the ACE inhibitor enalapril is directly applied to the skin in the region of one knee while the other knee is left untreated.
A patient is diagnosed with osteoarthritis syndrome in both knees. A composition comprising the angiotensin receptor blocker losartan is directly applied to the skin in the region of one knee while the other knee is left untreated.

[2] = system: osteoarthritis syndrome in both knees; assay: Composition given by intra-articular injection in one knee, other knee left untreated; format: in vivo, human; conditions: patient
Method: A patient is diagnosed with osteoarthritis syndrome in both knees. […] A patient is diagnosed with osteoarthritis syndrome in both knees. A composition comprising the ACE inhibitor enalapril is administered by intra-articular injection in one knee while the other knee is left untreated. […] A patient is diagnosed with osteoarthritis syndrome in both knees. A composition comprising the angiotensin receptor blocker losartan is administered by intra-articular injection in one knee while the other knee is left untreated.

osteoarthritis [3] = conditions: cited from earlier work; for clinical difference between the high potency narcotics and tramadol: human, in vivo
osteoarthritis [4] = conditions: 6 trials, 1501 participants, cited from earlier work

Compound: CCOC(=O)[C@H](CCc1ccccc1)N[C@@H](C)C(=O)N1CCC[C@H]1C(=O)O [enalapril]
- symptoms of osteoarthritis syndrome, treated knee versus untreated knee [1]: reduced symptoms of osteoarthritis syndrome
- symptoms of osteoarthritis syndrome, treated knee versus untreated knee [2]: reduced symptoms of osteoarthritis syndrome

Compound: chondroitin sulfate
- effect on pain and function (osteoarthritis [3]; meta-analysis of 20 randomized clinical studies, 3846 patients, called negligible): 0.003%

Compound: CN1CC[C@]23c4c5ccc(O)c4O[C@H]2[C@@H](O)C=C[C@H]3[C@H]1C5 [morphine]
- clinical difference between the high potency narcotics and tramadol (osteoarthritis [3]): no clinically observable difference

Compound: N[C@H]1C(O)O[C@H](CO)[C@@H](O)[C@@H]1O.O=S(=O)(O)O (stereo partly shown) [glucosamine sulfate]
- pain and function (osteoarthritis [3]; industry-sponsored study of 604 patients): statistical significant reduction in pain and increase in function
- effect versus placebo (osteoarthritis [3]; meta-analysis of 25 randomized placebo controlled clinical trials, 3458 patients): failed to find any significant effects
- preventive effect on osteoarthritis (osteoarthritis [4]; after 3 years, benefit clinically irrelevant): small statistical effect
- preventive effect on osteoarthritis (osteoarthritis [4]; after one year): no preventive effect

Compound: CC(=O)Nc1ccc(O)cc1 [Tylenol]
- clinical effect (osteoarthritis [3]; meta-analysis of 74 randomized clinical trials, 58556 patients): did not have a clinically relevant effect

Compound: COc1ccc2c3c1O[C@H]1C(=O)CC[C@@]4(O)[C@@H](C2)N(C)CC[C@]314 [oxycodone]
- clinical difference between the high potency narcotics and tramadol (osteoarthritis [3]): no clinically observable difference

Compound: COc1cccc(C2(O)CCCCC2CN(C)C)c1 (stereo not shown) [tramadol]
- clinical difference between the high potency narcotics and tramadol (osteoarthritis [3]): no clinically observable difference

Compound: CCCCc1nc(Cl)c(CO)n1Cc1ccc(-c2ccccc2-c2nn[nH]n2)cc1 [losartan]
- symptoms of osteoarthritis syndrome, treated knee versus untreated knee [1]: reduced symptoms of osteoarthritis syndrome
- symptoms of osteoarthritis syndrome, treated knee versus untreated knee [2]: reduced symptoms of osteoarthritis syndrome
